Earlier results as cited in publication PMC7904743, “WIDOCK: a reactive docking protocol for virtual screening of covalent inhibitors” (Journal of Computer-Aided Molecular Design, 2021).
Where two headings read alike, the source gives them in different places.

How the values were obtained:
OTUB2 = OTUB2 protein labeling; experimental actives if % labeling higher than 50%; cited from earlier work
NUDT7 = conditions: protein labeling at 200 μM; experimental actives if % labeling higher than 50%; cited from earlier work
[1] = thiol reactivity, cited from earlier work
[2] = natural log of average kinetic rate constant
[3] = natural log of average rate constant

SMILES	OTUB2 % labeling (OTUB2) [%]	NUDT7 % labeling (NUDT7) [%]	ln(avg k) [1, 2]	ln(avg k) [1, 3]
O=C(CCl)N1CCN(c2ccc(F)cc2)CC1 [PCM-0102905, O=C(CCl)N1CCN(c2ccc(F)cc2)CC1]	7	10	-15.525	-15.525
COC(=O)CNC(=O)CCl [PCM-0102906, COC(=O)CNC(=O)CCl]	6	0	-17.517	-17.517
O=C(CCl)NC(=O)Nc1ccc2c(c1)OCCCO2 [PCM-0102910, O=C(CCl)NC(=O)Nc1ccc2c(c1)OCCCO2]	0	0	-16.097	-16.097
COC(=O)c1cc(Cl)cc(Cl)c1NC(=O)CCl [PCM-0102912, COC(=O)c1cc(Cl)cc(Cl)c1NC(=O)CCl]	0	17	-17.100	-17.100
CC1CCC(NC(=O)CCl)CC1 (stereo not shown) [PCM-0102913, CC1CCC(NC(=O)CCl)CC1]	8	0	-16.529	-16.529
O=C(CCl)Nc1ccc(Cl)cc1Cl [PCM-0102914, O=C(CCl)Nc1ccc(Cl)cc1Cl]	14	22	-16.384	-16.384
O=C(CCl)Nc1ccc(N2CCCC2=O)cc1 [PCM-0102915, O=C(CCl)Nc1ccc(N2CCCC2=O)cc1]	49	0	-15.819	-15.819
CN(C(=O)CCl)C1(C#N)CCCCC1 [PCM-0102916, CN(C(=O)CCl)C1(C#N)CCCCC1]	0	0	-15.114	-15.114
CC(=O)c1oc2ccccc2c1NC(=O)CCl [PCM-0102918, CC(=O)c1oc2ccccc2c1NC(=O)CCl]	0	39	-15.842	-15.842
O=C(CCl)N1CCN(Cc2ccccc2)C1=O [PCM-0102919, O=C(CCl)N1CCN(Cc2ccccc2)C1=O]	10	0	-18.275	-18.275
O=C(CCl)N1CCC(c2nc3ccccc3o2)CC1 [PCM-0102920, O=C(CCl)N1CCC(c2nc3ccccc3o2)CC1]	0	0	-15.428	-15.428
CN1CCN(C(=O)CCl)CC1 [PCM-0102921, CN1CCN(C(=O)CCl)CC1]	0	0	-17.315	-17.315
CC(C)(C)OC(=O)N1CCCC(CNC(=O)CCl)C1 (stereo not shown) [PCM-0102923, CC(C)(C)OC(=O)N1CCCC(CNC(=O)CCl)C1]	20	0	-16.613	-16.613
O=C(CCl)Nc1ccc(Br)cc1F [PCM-0102926, O=C(CCl)Nc1ccc(Br)cc1F]	20	17	-16.464	-16.464
CC(C)c1nnc(NC(=O)CCl)s1 [PCM-0102928, CC(C)c1nnc(NC(=O)CCl)s1]	0	4	-15.769	-15.769
COc1ccc(C2=CCN(C(=O)CCl)CC2)cc1 [PCM-0102929, COc1ccc(C2=CCN(C(=O)CCl)CC2)cc1]	0	45	-16.042	-16.042
O=C(CCl)Nc1ccncc1 [PCM-0102930, O=C(CCl)Nc1ccncc1]	0	0	-16.813	-16.813
O=C(CCl)NC1CCN(C(=O)C2CCCCC2)CC1 [PCM-0102931, O=C(CCl)NC1CCN(C(=O)C2CCCCC2)CC1]	9	0	-16.253	-16.253
CC(=O)N1CCC(NC(=O)CCl)CC1 [PCM-0102932, CC(=O)N1CCC(NC(=O)CCl)CC1]	7	0	-16.417	-16.417
CC1CCCN(C(=O)C2CCN(C(=O)CCl)CC2)C1 (stereo not shown) [PCM-0102933, CC1CCCN(C(=O)C2CCN(C(=O)CCl)CC2)C1]	0	0	-15.328	-15.328
O=C(CCl)NC1(c2ccccc2)CCC1 [PCM-0102935, O=C(CCl)NC1(c2ccccc2)CCC1]	0	29	-16.140	-16.140
N#Cc1cccc(CNC(=O)CCl)c1 [PCM-0102936, N#Cc1cccc(CNC(=O)CCl)c1]	32	0	-16.667	-16.667

SMILES	OTUB2 % labeling (OTUB2) [%]	NUDT7 % labeling (NUDT7) [%]	ln(avg k) [1, 2]	ln(avg k) [1, 3]
CCOC(=O)C1CCCCN1C(=O)CCl (stereo not shown) [PCM-0102937, CCOC(=O)C1CCCCN1C(=O)CCl]	13	0	-16.030	-16.030
COc1ccc(C2CCCN2C(=O)CCl)cc1 (stereo not shown) [PCM-0102938, COc1ccc(C2CCCN2C(=O)CCl)cc1]	0	100	-15.798	-15.798
CN(Cc1ccc(F)cc1)C(=O)CCl [PCM-0102939, CN(Cc1ccc(F)cc1)C(=O)CCl]	10	0	-16.214	-16.214
O=C(CCl)N1CCOC2CCCCC21 (stereo not shown) [PCM-0102940, O=C(CCl)N1CCOC2CCCCC21]	0	0	-15.696	-15.696
CC(C)N(C(=O)CCl)C1CCCCC1 [PCM-0102941, CC(C)N(C(=O)CCl)C1CCCCC1]	0	17	-16.528	-16.528
CN(CC12CC3CC(CC(C3)C1)C2)C(=O)CCl [PCM-0102942, CN(CC12CC3CC(CC(C3)C1)C2)C(=O)CCl]	10	26	-15.698	-15.698
Cc1nc(C2(NC(=O)CCl)CCCCCC2)no1 [PCM-0102944, Cc1nc(C2(NC(=O)CCl)CCCCCC2)no1]	0	0	-17.037	-17.037
CC1CCN(C(=O)CCl)CC1 [PCM-0102945, CC1CCN(C(=O)CCl)CC1]	0	0	-16.826	-16.826
N#Cc1ccc(CNC(=O)CCl)cc1 [PCM-0102946, N#Cc1ccc(CNC(=O)CCl)cc1]	35	0	-16.364	-16.364
CC(C)N(C(=O)CCl)C1CCCC1 [PCM-0102948, CC(C)N(C(=O)CCl)C1CCCC1]	0	13	-16.391	-16.391
Cc1nn(C)c(C)c1NC(=O)CCl [PCM-0102949, Cc1nn(C)c(C)c1NC(=O)CCl]	0	0	-16.344	-16.344
O=C(CCl)NCc1ccccn1 [PCM-0102950, O=C(CCl)NCc1ccccn1]	0	0	-17.514	-17.514
O=C(CCl)NC1(c2ccc3c(c2)OCCO3)CCCC1 [PCM-0102951, O=C(CCl)NC1(c2ccc3c(c2)OCCO3)CCCC1]	0	100	-16.488	-16.488
O=C(CCl)NNC(=O)c1ccc(Cl)cc1 [PCM-0102953, O=C(CCl)NNC(=O)c1ccc(Cl)cc1]	18	0	-17.321	-17.321
O=C(CCl)NNC(=O)c1ccccc1Cl [PCM-0102954, O=C(CCl)NNC(=O)c1ccccc1Cl]	80	0	-17.060	-17.060
Cc1ccc(NC(=O)CCl)cc1Br [PCM-0102955, Cc1ccc(NC(=O)CCl)cc1Br]	14	27	-16.336	-16.336
O=C(Nc1ccccc1)NN(C(=O)CCl)c1ccccc1 [PCM-0102957, O=C(Nc1ccccc1)NN(C(=O)CCl)c1ccccc1]	0	100	-15.066	-15.066
CN(Cc1ccc2c(c1)OCCO2)C(=O)CCl [PCM-0102958, CN(Cc1ccc2c(c1)OCCO2)C(=O)CCl]	9	27	-16.177	-16.177
Cc1ccc(CNC(=O)CCl)cc1F [PCM-0102959, Cc1ccc(CNC(=O)CCl)cc1F]	50	0	-16.344	-16.344
Cc1ccc(C(=O)N2CCN(C(=O)CCl)CC2)cc1 [PCM-0102962, Cc1ccc(C(=O)N2CCN(C(=O)CCl)CC2)cc1]	0	0	-15.309	-15.309
CC(=O)c1cccc(NC(=O)CCl)c1 [PCM-0102965, CC(=O)c1cccc(NC(=O)CCl)c1]	36	0	-15.751	-15.751
